Data published in US6818203B2, “Use of perfluoroalkyl-containing metal complexes as contrast media in MR-imaging for visualization of plaque, tumors and necroses” (Schering Aktiengesellschaft, priority 2000, dated 2004).

Key:
Type in all cases: in vivo
[1] = tested on: primary tumor (VX2-tumor implanted i.m.); assay: tumor visualization (MRT) after intravenous administration in VX2-tumor-bearing rabbits; settings: 200 μmol of Gd/kg i.v.
Procedure: The pictures of FIG. 6 show MR images of an iliac lymph node and of a primary tumor (VX2-tumor implanted i.m.) precontrast, 60 minutes and 20 hours after intravenous administration of 100 μmol of Gd/kg of body weight of metal complex I in rabbits. […]

[2] = organ distribution (including tumor and lymph node concentration) after intravenous administration in prostate cancer-bearing rats; settings: 200 μmol Gd/kg i.v.
Procedure: After intravenous administration of 200 μmol of total gadolinium/kg of body weight of a polar Gd-chelate with perfluorinated side chains (metal complex XIV) in rats (Cop-inbreeding with Dunning R3327 MAT-Lu prostate cancer i.m.-implanted 12 days earlier), the metal content in various organs, in tumors, as well as in the lymph nodes (pooled as mesenteric and peripheral lymph nodes) was determined 10 minutes, 1 hour and 24 hours after administration (MW±SD, n=3).

[3] = tested on: iliac and inguinal lymph nodes; assay: lymph node visualization (MRT) after intravenous administration in guinea pigs with stimulated lymph nodes; settings: 200 μmol of Gd/kg i.v.
Procedure: By way of example, the pictures in FIG. 14 show MR images of iliac and inguinal lymph nodes precontrast and up to 24 hours after intravenous administration of 200 μmol of Gd/kg of body weight of metal complex XIV in guinea pigs with stimulated lymph nodes (Freund adjuvant). […] The enhancement was 127% at the time of 60 minutes p.i.

[4] = Mesentric lymph nodes, 10 min p.i.
[5] = Mesentric lymph nodes, 1 h p.i.
[6] = Mesentric lymph nodes, 24 h p.i.
[7] = Peripheral lymph nodes, 10 min p.i.
[8] = Peripheral lymph nodes, 1 h p.i.
[9] = Peripheral lymph nodes, 24 h p.i.
[10] = The remainder of the body, 10 min p.i.
[11] = The remainder of the body, 1 h p.i.
[12] = The remainder of the body, 24 h p.i.

% Dose ([2]; Balance (without blood values), 24 h p.i.): 95.07 ± 2.41 % Dose
% Dose ([2]; Blood (58 ml of blood/kg of body weight), 10 min p.i.): 26.73 ± 0.84 % Dose
% Dose ([2]; Blood (58 ml of blood/kg of body weight), 1 h p.i.): 16.13 ± 1.77 % Dose
% Dose ([2]; Blood (58 ml of blood/kg of body weight), 24 h p.i.): 0.61 ± 0.03 % Dose
Gd concentration ([2]; Blood, 10 min p.i.): 957 ± 38 µmol/L
Gd concentration ([2]; Blood, 1 h p.i.): 575 ± 56 µmol/L
Gd concentration ([2]; Blood, 24 h p.i.): 22 ± 1 µmol/L
% Dose ([2]; Brain, 10 min p.i.): 0.10 ± 0.03 % Dose
Gd concentration ([2]; Brain, 10 min p.i.): 38 ± 6 µmol/L
% Dose ([2]; Brain, 1 h p.i.): 0.06 ± 0.00 % Dose
Gd concentration ([2]; Brain, 1 h p.i.): 22 ± 2 µmol/L
% Dose ([2]; Brain, 24 h p.i.): 0.01 ± 0.01 % Dose
Gd concentration ([2]; Brain, 24 h p.i.): 4 ± 4 µmol/L
% Dose ([2]; Feces 0-24 h): 6.00 ± 4.91 % Dose
Gd concentration ([2]; Feces 0-24 h): 781 ± 611 µmol/L
% Dose ([2]; Femur, 10 min p.i.): 0.39 ± 0.02 % Dose
Gd concentration ([2]; Femur, 10 min p.i.): 115 ± 3 µmol/L
% Dose ([2]; Femur, 1 h p.i.): 0.28 ± 0.03 % Dose
Gd concentration ([2]; Femur, 1 h p.i.): 81 ± 10 µmol/L
% Dose ([2]; Femur, 24 h p.i.): 0.03 ± 0.00 % Dose
Gd concentration ([2]; Femur, 24 h p.i.): 9 ± 1 µmol/L
% Dose ([2]; Heart, 10 min p.i.): 0.32 ± 0.01 % Dose
Gd concentration ([2]; Heart, 10 min p.i.): 320 ± 8 µmol/L
% Dose ([2]; Heart, 1 h p.i.): 0.19 ± 0.01 % Dose
Gd concentration ([2]; Heart, 1 h p.i.): 190 ± 15 µmol/L
% Dose ([2]; Heart, 24 h p.i.): 0.02 ± 0.00 % Dose
Gd concentration ([2]; Heart, 24 h p.i.): 19 ± 0 µmol/L
% Dose ([2]; Intestine (empty), 10 min p.i.): 1.55 ± 0.09 % Dose
Gd concentration ([2]; Intestine (empty), 10 min p.i.): 242 ± 15 µmol/L
% Dose ([2]; Intestine (empty), 1 h p.i.): 1.16 ± 0.22 % Dose
Gd concentration ([2]; Intestine (empty), 1 h p.i.): 201 ± 32 µmol/L
% Dose ([2]; Intestine (empty), 24 h p.i.): 0.26 ± 0.04 % Dose
Gd concentration ([2]; Intestine (empty), 24 h p.i.): 36 ± 5 µmol/L
% Dose ([2]; Kidney, 10 min p.i.): 1.76 ± 0.14 % Dose
Gd concentration ([2]; Kidney, 10 min p.i.): 761 ± 60 µmol/L
% Dose ([2]; Kidney, 1 h p.i.): 2.84 ± 0.61 % Dose
Gd concentration ([2]; Kidney, 1 h p.i.): 1181 ± 232 µmol/L
% Dose ([2]; Kidney, 24 h p.i.): 0.81 ± 0.09 % Dose
Gd concentration ([2]; Kidney, 24 h p.i.): 338 ± 49 µmol/L
% Dose ([2]; Liver, 10 min p.i.): 2.62 ± 0.11 % Dose
Gd concentration ([2]; Liver, 10 min p.i.): 192 ± 12 µmol/L
% Dose ([2]; Liver, 1 h p.i.): 2.04 ± 0.15 % Dose
Gd concentration ([2]; Liver, 1 h p.i.): 147 ± 7 µmol/L
% Dose ([2]; Liver, 24 h p.i.): 0.96 ± 0.05 % Dose
Gd concentration ([2]; Liver, 24 h p.i.): 64 ± 4 µmol/L
% Dose ([2]; Lung, 10 min p.i.): 1.04 ± 0.02 % Dose
Gd concentration ([2]; Lung, 10 min p.i.): 603 ± 30 µmol/L
% Dose ([2]; Lung, 1 h p.i.): 0.80 ± 0.06 % Dose
Gd concentration ([2]; Lung, 1 h p.i.): 415 ± 39 µmol/L
% Dose ([2]; Lung, 24 h p.i.): 0.09 ± 0.01 % Dose
Gd concentration ([2]; Lung, 24 h p.i.): 44 ± 4 µmol/L
% Dose [2, 4]: 0.08 ± 0.01 % Dose
Gd concentration [2, 4]: 291 ± 29 µmol/L
% Dose [2, 5]: 0.05 ± 0.01 % Dose
Gd concentration [2, 5]: 179 ± 16 µmol/L
% Dose [2, 6]: 0.02 ± 0.00 % Dose
Gd concentration [2, 6]: 50 ± 6 µmol/L
% Dose ([2]; Muscle, 10 min p.i.): 0.06 ± 0.02 % Dose
Gd concentration ([2]; Muscle, 10 min p.i.): 93 ± 5 µmol/L
% Dose ([2]; Muscle, 1 h p.i.): 0.04 ± 0.00 % Dose
Gd concentration ([2]; Muscle, 1 h p.i.): 56 ± 3 µmol/L
% Dose ([2]; Muscle, 24 h p.i.): 0.00 ± 0.00 % Dose
Gd concentration ([2]; Muscle, 24 h p.i.): 8 ± 1 µmol/L
% Dose ([2]; Pancreas, 10 min p.i.): 0.35 ± 0.02 % Dose
Gd concentration ([2]; Pancreas, 10 min p.i.): 191 ± 14 µmol/L
% Dose ([2]; Pancreas, 1 h p.i.): 0.21 ± 0.05 % Dose
Gd concentration ([2]; Pancreas, 1 h p.i.): 139 ± 26 µmol/L
% Dose ([2]; Pancreas, 24 h p.i.): 0.03 ± 0.01 % Dose
Gd concentration ([2]; Pancreas, 24 h p.i.): 25 ± 1 µmol/L
% Dose [2, 7]: 0.13 ± 0.00 % Dose
Gd concentration [2, 7]: 284 ± 19 µmol/L
% Dose [2, 8]: 0.14 ± 0.02 % Dose
Gd concentration [2, 8]: 254 ± 14 µmol/L
% Dose [2, 9]: 0.02 ± 0.00 % Dose
Gd concentration [2, 9]: 51 ± 5 µmol/L
% Dose ([2]; Spleen, 10 min p.i.): 0.13 ± 0.01 % Dose
Gd concentration ([2]; Spleen, 10 min p.i.): 200 ± 13 µmol/L
% Dose ([2]; Spleen, 1 h p.i.): 0.08 ± 0.01 % Dose
Gd concentration ([2]; Spleen, 1 h p.i.): 123 ± 10 µmol/L
% Dose ([2]; Spleen, 24 h p.i.): 0.06 ± 0.00 % Dose
Gd concentration ([2]; Spleen, 24 h p.i.): 69 ± 5 µmol/L
% Dose ([2]; Stomach (empty), 10 min p.i.): 0.56 ± 0.07 % Dose
Gd concentration ([2]; Stomach (empty), 10 min p.i.): 244 ± 17 µmol/L
% Dose ([2]; Stomach (empty), 1 h p.i.): 0.40 ± 0.05 % Dose
Gd concentration ([2]; Stomach (empty), 1 h p.i.): 165 ± 21 µmol/L
% Dose ([2]; Stomach (empty), 24 h p.i.): 0.05 ± 0.00 % Dose
Gd concentration ([2]; Stomach (empty), 24 h p.i.): 19 ± 2 µmol/L
% Dose ([2]; Sum of the organs, 10 min p.i.): 80.06 ± 2.84 % Dose
% Dose ([2]; Sum of the organs, 1 h p.i.): 72.94 ± 5.83 % Dose
% Dose ([2]; Sum of the organs, 24 h p.i.): 9.21 ± 0.27 % Dose
% Dose [2, 10]: 70.71 ± 2.74 % Dose
Gd concentration [2, 10]: 419 ± 27 µmol/L
% Dose [2, 11]: 64.27 ± 5.50 % Dose
Gd concentration [2, 11]: 392 ± 25 µmol/L
% Dose [2, 12]: 6.81 ± 0.16 % Dose
Gd concentration [2, 12]: 42 ± 0 µmol/L
% Dose ([2]; Tumor, 10 min p.i.): 0.25 ± 0.05 % Dose
Gd concentration ([2]; Tumor, 10 min p.i.): 246 ± 25 µmol/L
% Dose ([2]; Tumor, 1 h p.i.): 0.37 ± 0.14 % Dose
Gd concentration ([2]; Tumor, 1 h p.i.): 266 ± 87 µmol/L
% Dose ([2]; Tumor, 24 h p.i.): 0.04 ± 0.01 % Dose
Gd concentration ([2]; Tumor, 24 h p.i.): 56 ± 4 µmol/L
% Dose ([2]; Urine 0-24 h): 79.86 ± 3.13 % Dose
Gd concentration ([2]; Urine 0-24 h): 619 ± 19 µmol/L
SMILES: CC(C(=O)NCC(=O)NCC(=O)N1CCN(C(=O)CNC(=O)CNC(=O)C(C)N2CCN(CC(=O)[O-])CCN(CC(=O)[O-])CCN(CC(=O)[O-])CC2)CCN(C(=O)COCCC(F)(F)C(F)(F)C(F)(F)C(F)(F)C(F)(F)C(F)(F)C(F)(F)C(F)(F)F)CCN(C(=O)CNC(=O)CNC(=O)C(C)N2CCN(CC(=O)[O-])CCN(CC(=O)[O-])CCN(CC(=O)[O-])CC2)CC1)N1CCN(CC(=O)[O-])CCN(CC(=O)[O-])CCN(CC(=O)[O-])CC1.[Gd+3].[Gd+3].[Gd+3] (stereo not drawn) [metal complex XIV, 1,4,7-Tris{1,4,7-tris(N-(carboxylatomethyl)-10-[N-1-methyl-3,6-diaza-2,5,8-trioxooctane-1,8-diyl]-1,4,7,10-tetraazacyclododecane, Gdcomplex}-10-N-2H,2H,4H,4H,5H,5H-3-oxa-perfluoro-tridecanoyl]-1,4,7,10-tetraazacyclo-dodecane, Gd complex]
enhancement of the primary tumor (especially the periphery) ([1]; 15 minutes p.i.): 594%
enhancement of the primary tumor (center of the tumor) ([1]; 120 hours p.i.): 162%
enhancement in lymph node tissue ([3]; 60 minutes p.i.): 127%
signal in healthy lymph node tissue (T1-weighted gradient-echo images) ([3]; very shortly after injection): strong signal rise
